Each block holds one compound with its values, some of them ahead of it. Calls of active or inactive are those of the source. No cut-off for these calls is given here.
Tests used:
[1] = target: T1, Receptor-type tyrosine-protein kinase FLT3 (Homo sapiens, UniProt P36888)
T1 sequence (P36888 whole entry): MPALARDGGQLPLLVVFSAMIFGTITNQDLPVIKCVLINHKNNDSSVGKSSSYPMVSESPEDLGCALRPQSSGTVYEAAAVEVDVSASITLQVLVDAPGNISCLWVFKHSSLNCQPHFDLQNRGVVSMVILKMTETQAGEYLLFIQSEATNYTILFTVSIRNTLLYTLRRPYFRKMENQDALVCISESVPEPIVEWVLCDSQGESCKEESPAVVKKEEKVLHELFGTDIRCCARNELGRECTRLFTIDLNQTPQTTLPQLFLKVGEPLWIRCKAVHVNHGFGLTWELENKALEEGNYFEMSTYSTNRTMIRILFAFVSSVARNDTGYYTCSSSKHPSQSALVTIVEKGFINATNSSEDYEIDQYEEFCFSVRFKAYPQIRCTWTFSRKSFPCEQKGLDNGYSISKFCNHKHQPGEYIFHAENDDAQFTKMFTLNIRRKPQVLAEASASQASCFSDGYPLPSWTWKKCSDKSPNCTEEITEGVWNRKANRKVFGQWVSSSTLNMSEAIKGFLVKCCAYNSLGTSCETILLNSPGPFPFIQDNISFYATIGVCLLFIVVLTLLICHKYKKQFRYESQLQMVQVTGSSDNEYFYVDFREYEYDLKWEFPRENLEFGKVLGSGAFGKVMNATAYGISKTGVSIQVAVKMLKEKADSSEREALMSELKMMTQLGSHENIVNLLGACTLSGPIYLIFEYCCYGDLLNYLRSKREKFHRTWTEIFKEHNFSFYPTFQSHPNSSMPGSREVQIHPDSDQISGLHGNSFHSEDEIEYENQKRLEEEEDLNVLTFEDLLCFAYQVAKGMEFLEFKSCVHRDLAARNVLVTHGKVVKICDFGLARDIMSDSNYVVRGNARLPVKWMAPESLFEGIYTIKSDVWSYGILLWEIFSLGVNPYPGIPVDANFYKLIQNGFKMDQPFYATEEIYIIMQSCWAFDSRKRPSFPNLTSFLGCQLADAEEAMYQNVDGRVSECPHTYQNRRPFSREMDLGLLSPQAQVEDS
Description: Inhibition of human wild type FLT3 using TK peptide as substrate incubated for 1 hr in presence of ATP by HTRF assay

[2] = target: Receptor-type tyrosine-protein kinase FLT3 (Homo sapiens, UniProt P36888, D835Y)
Description: Inhibition of human FLT3 D835Y mutant using TK peptide as substrate incubated for 1 hr in presence of ATP by HTRF assay

[3] = system: MOLM-13; assay: Antiproliferative activity against human MOLM-13 cells assessed as inhibition of cell growth incubated for 72 hrs by MTS assay; assay type: functional, cell-based; settings: MOLM-13, 72 h
[4] = system: MV4-11; assay: cells; settings: Homo sapiens, MV4-11, 72 h
Description: Antiproliferative activity against human MV4-11 cells assessed as inhibition of cell growth incubated for 72 hrs by MTS assay

[5] = system: BaF3; assay: cells; settings: Mus musculus, BaF3, 72 h
Description: Antiproliferative activity against mouse BaF3 cells harboring FLT3-ITD mutant assessed as inhibition of cell growth incubated for 72 hrs by MTS assay

[6] = system: BaF3; assay: cells; settings: Mus musculus, BaF3, 72 h; remark: listed apart in the source
Description: Antiproliferative activity against mouse BaF3 cells harboring FLT3-F691L mutant assessed as inhibition of cell growth incubated for 72 hrs by MTS assay

[7] = system: BaF3; assay: cells; settings: Mus musculus, BaF3, 72 h; remark: listed apart in the source
Description: Antiproliferative activity against mouse BaF3 cells harboring FLT3-D835F mutant assessed as inhibition of cell growth incubated for 72 hrs by MTS assay

[8] = system: BaF3; assay: cells; settings: Mus musculus, BaF3, 72 h; remark: listed apart in the source
Description: Antiproliferative activity against mouse BaF3 cells harboring FLT3-D835V mutant assessed as inhibition of cell growth incubated for 72 hrs by MTS assay

[9] = system: BaF3; assay: cells; settings: Mus musculus, BaF3, 72 h; remark: listed apart in the source
Description: Antiproliferative activity against mouse BaF3 cells harboring FLT3-ITD/D835Y mutant assessed as inhibition of cell growth incubated for 72 hrs by MTS assay

[10] = Metabolic stability in ICR/CD mouse liver microsomes assessed as compound remaining at 100 uM preincubated with NADPH for 5 mins followed by compound addition and measured upto 90 mins by LC-MS/MS method; assay type: ADME, Microsome; settings: time < 95 min, read-out: Stability
[11] = system: Z-138; assay: Antiproliferative activity against human Z138 cells assessed as inhibition of cell growth incubated for 72 hrs by MTS assay; assay type: functional, cell-based; settings: Z-138, 72 h
[12] = system: HCC1954; assay: Antiproliferative activity against human HCC1954 cells assessed as inhibition of cell growth incubated for 72 hrs by MTS assay; assay type: functional, cell-based; settings: HCC1954, 72 h
[13] = Antiproliferative activity against human MINO cells assessed as inhibition of cell growth incubated for 72 hrs by MTS assay; assay type: functional, cell-based
[14] = system: MM1.S; assay: Antiproliferative activity against human MM1.S cells assessed as inhibition of cell growth incubated for 72 hrs by MTS assay; assay type: functional, cell-based
[15] = system: OCI-AML-3; assay: Antiproliferative activity against human OCI-AML-3 cells assessed as inhibition of cell growth incubated for 72 hrs by MTS assay; assay type: functional, cell-based; settings: OCI-AML-3, 72 h
[16] = system: MOLT-4; assay: Antiproliferative activity against human MOLT-4 cells assessed as inhibition of cell growth incubated for 72 hrs by MTS assay; assay type: functional, cell-based; settings: MOLT-4, 72 h
[17] = system: KG-1; assay: Antiproliferative activity against human KG-1 cells assessed as inhibition of cell growth incubated for 72 hrs by MTS assay; assay type: functional, cell-based; settings: KG-1, 72 h
[18] = system: Rec1; assay: Antiproliferative activity against human REC1 cells assessed as inhibition of cell growth incubated for 72 hrs by MTS assay; assay type: functional, cell-based; settings: Rec1, 72 h
[19] = system: JeKo-1; assay: Antiproliferative activity against human JeKo-1 cells assessed as inhibition of cell growth incubated for 72 hrs by MTS assay; assay type: functional, cell-based; settings: JeKo-1, 72 h
[20] = system: HL-60; assay: Antiproliferative activity against human HL-60 cells assessed as inhibition of cell growth incubated for 72 hrs by MTS assay; assay type: functional, cell-based; settings: HL-60, 72 h
[21] = system: RS4-11; assay: Antiproliferative activity against human RS4-11 cells assessed as inhibition of cell growth incubated for 72 hrs by MTS assay; assay type: functional, cell-based; settings: RS4-11, 72 h
[22] = system: WI-38; assay: Antiproliferative activity against human WI-38 cells assessed as inhibition of cell growth incubated for 72 hrs by MTS assay; assay type: functional, cell-based; settings: WI-38, 72 h
[23] = Antiproliferative activity against human PBMCs assessed as inhibition of cell growth incubated for 72 hrs by MTS assay; assay type: toxicity, cell-based, PBMC
[24] = target: Receptor-type tyrosine-protein kinase FLT3 (Homo sapiens) (UniProt P36888); assay: Inhibition of FLT3 in human MV4-11 cells assessed as reduction in FLT3 autophosphorylation at Tyr589/591 at 10 to 1000 nM by Western blotting analysis; assay type: cell-based; settings: dose 10-1000 nM
[25] = target: Receptor-type tyrosine-protein kinase FLT3 (Homo sapiens) (UniProt P36888); assay: Inhibition of FLT3 in human MV4-11 cells assessed as reduction in STAT5 phosphorylation by Western blotting analysis; assay type: cell-based; settings: dose 10-1000 nM
[26] = target: Receptor-type tyrosine-protein kinase FLT3 (Homo sapiens) (UniProt P36888); assay: Inhibition of FLT3 in human MV4-11 cells assessed as reduction in AKT phosphorylation by Western blotting analysis; assay type: cell-based; settings: dose 10-1000 nM
[27] = target: Receptor-type tyrosine-protein kinase FLT3 (Homo sapiens) (UniProt P36888); assay: Inhibition of FLT3 in human MV4-11 cells assessed as reduction in ERK phosphorylation by Western blotting analysis; assay type: cell-based; settings: dose 10-1000 nM
[28] = target: Receptor-type tyrosine-protein kinase FLT3 (Homo sapiens) (UniProt P36888); assay: Inhibition of FLT3 in human MV4-11 cells assessed as reduction in STAT5 phosphorylation at 100 nM by Western blotting analysis; assay type: cell-based
[29] = target: Receptor-type tyrosine-protein kinase FLT3 (Homo sapiens) (UniProt P36888); assay: Inhibition of FLT3 in human MV4-11 cells assessed as reduction in ERK phosphorylation at 100 nM by Western blotting analysis; assay type: cell-based

IC50 [1]: 288 nM
IC50 [2]: 120 nM
SMILES: Cc1cc(Nc2cc3c(cn2)ncc(=O)n3-c2ccc(N)cc2)ncc1N1CCC(F)(F)CC1

IC50 [1]: 747 nM
IC50 [2]: 633 nM
SMILES: CN1CCN(c2ccc(Nc3cc4c(cn3)ncc(=O)n4-c3ccc(N(C)C)cc3)nc2)CC1

IC50 [1]: 856 nM
IC50 [2]: 685 nM
SMILES: CN1CCN(c2ccc(Nc3cc4c(cn3)ncc(=O)n4-c3ccc(NS(C)(=O)=O)cc3)nc2)CC1

SMILES: Cc1cc(Nc2cc3c(cn2)ncc(=O)n3-c2ccc(N)cc2)ncc1N1CCC(N)CC1
IC50 [1]: 72 nM
IC50 [2]: 42 nM
IC50 [3]: 651 nM
IC50 [4]: 52 nM

IC50 [1]: 2170 nM
IC50 [2]: 2840 nM
SMILES: CN1CCN(c2ccc(Nc3cc4c(cn3)ncc(=O)n4-c3ccc(N)cc3)cc2)CC1

IC50 [1]: 1040 nM
IC50 [2]: 811 nM
SMILES: CN1CCN(c2ccc(Nc3cc4c(cn3)ncc(=O)n4-c3ccc(CN)cc3)nc2)CC1

SMILES: Cc1cc(Nc2cc3c(cn2)ncc(=O)n3-c2ccc(N)cc2)ncc1N1CCN(C2CC2)CC1
IC50 [1]: 103 nM
IC50 [2]: 38 nM
IC50 [3]: 366 nM
IC50 [4]: 36 nM

IC50 [1]: 939 nM
IC50 [2]: 582 nM
SMILES: CC(=O)Nc1ccc(-n2c(=O)cnc3cnc(Nc4ccc(N5CCN(C)CC5)cn4)cc32)cc1

IC50 [1]: 599 nM
IC50 [2]: 653 nM
SMILES: CN1CCN(c2ccc(Nc3cc4c(cn3)ncc(=O)n4-c3ccc(N)cc3)nc2)CC1

SMILES: Cc1cc(Nc2cc3c(cn2)ncc(=O)n3-c2ccc(N)cc2)ncc1N1CCN(S(C)(=O)=O)CC1
IC50 [1]: 122 nM
IC50 [2]: 89 nM
IC50 [3]: 692 nM
IC50 [4]: 68 nM

SMILES: Cc1cc(Nc2cc3c(cn2)ncc(=O)n3-c2ccc(N)cc2)ncc1N1CCN(C)CC1
IC50 [1]: 50 nM
IC50 [2]: 41 nM
IC50 [3]: 254 nM
IC50 [4]: 30 nM

IC50 [1]: > 10 nM
IC50 [2]: 11700 nM
SMILES: Cc1cc(Nc2cc3c(cn2)ncc(=O)n3-c2ccc(N)cc2)ncc1N1CCOCC1

IC50 [1]: 2720 nM
IC50 [2]: 2440 nM
SMILES: CC(=O)Nc1ccc(-n2c(=O)cnc3cnc(Nc4ccc(N5CCN(C)CC5)cc4)cc32)cc1

IC50 [1]: 166 nM
IC50 [2]: 123 nM
SMILES: CC(=O)N1CCN(c2cnc(Nc3cc4c(cn3)ncc(=O)n4-c3ccc(N)cc3)cc2C)CC1

SMILES: Cc1cc(Nc2cc3c(cn2)ncc(=O)n3-c2ccc(N)cc2)ncc1N1CCSCC1
IC50 [1]: 185 nM
IC50 [2]: 89 nM
IC50 [3]: 881 nM
IC50 [4]: 98 nM

IC50 [1]: 915 nM
IC50 [2]: 730 nM
SMILES: CN1CCN(c2ccc(Nc3cc4c(cn3)ncc(=O)n4-c3cccc(N)c3)nc2)CC1

SMILES: Cc1cc(Nc2cc3c(cn2)ncc(=O)n3-c2ccc(N)cc2)ncc1N1C[C@@H](C)N[C@@H](C)C1
IC50 [1]: 85 nM
IC50 [2]: 33 nM
IC50 [3]: 191 nM
IC50 [4]: 24 nM
IC50 [5]: 681 nM
IC50 [6]: 257 nM
IC50 [7]: 689 nM
IC50 [8]: 70 nM
IC50 [9]: 169 nM

IC50 [1]: 440 nM
IC50 [2]: 343 nM
SMILES: Cc1cc(Nc2cc3c(cn2)ncc(=O)n3-c2ccc(N)cc2)ncc1NC1CCN(C)CC1

SMILES: Cc1cc(Nc2cc3c(cn2)ncc(=O)n3-c2ccc(N)cc2)ncc1N1CCNCC1
IC50 [1]: 102 nM
IC50 [2]: 34 nM
IC50 [3]: 436 nM
IC50 [4]: 26 nM
IC50 [5]: 3130 nM
IC50 [6]: 863 nM
IC50 [7]: 3100 nM
IC50 [8]: 163 nM
IC50 [9]: 633 nM

IC50 [1]: 193 nM
IC50 [2]: 156 nM
SMILES: Cc1cc(Nc2cc3c(cn2)ncc(=O)n3-c2ccc(N)cc2)ncc1N1CCC(O)CC1

IC50 [1]: 2540 nM
IC50 [2]: 6590 nM
SMILES: CN1CCN(c2ccc(Nc3ccc4ncc(=O)n(-c5ccc(N)cc5)c4n3)nc2)CC1

SMILES: CCN1CCN(c2cnc(Nc3cc4c(cn3)ncc(=O)n4-c3ccc(N)cc3)cc2C)CC1
IC50 [1]: 102 nM
IC50 [2]: 51 nM
IC50 [3]: 230 nM
IC50 [4]: 31 nM

SMILES: Cc1cc(Nc2cc3c(cn2)ncc(=O)n3-c2ccc(N)cc2)ncc1N1CCN(C(C)C)CC1
IC50 [1]: 62 nM
IC50 [2]: 30 nM
IC50 [3]: 132 nM
remaining at 1.5 h, 100 µM [10]: > 80%
IC50 [11]: 1440 nM
IC50 [12]: 11600 nM
IC50 [13]: 1090 nM
IC50 [14]: 1580 nM
IC50 [15]: 6440 nM
IC50 [16]: 4330 nM
IC50 [17]: 2460 nM
IC50 [18]: 3920 nM
IC50 [19]: 1520 nM
IC50 [20]: 6500 nM
IC50 [21]: 1400 nM
IC50 [22]: 16600 nM
IC50 at 72 h [23]: 3270 nM
inhibition [24]: Active
inhibition [25]: Dose-Dependent Effect
inhibition [26]: Dose-Dependent Effect
inhibition [27]: Dose-Dependent Effect
inhibition [28]: 100%
inhibition [29]: 100%
IC50 [4]: 15 nM
IC50 [5]: 136 nM
IC50 [6]: 40 nM
IC50 [7]: 131 nM
IC50 [8]: 8 nM
IC50 [9]: 26 nM

IC50 [1]: 3830 nM
IC50 [2]: 6610 nM
SMILES: CN1CCN(c2ccc(Nc3ccc4ncc(=O)n(-c5ccc(N)cc5)c4n3)cc2)CC1
